Results as given in the supplement of paper PMC11451515.

Tested on: SEM cells
Assay: cell viability relative to DMSO control; higher = less cytotoxic
Details: 48 h
Method in brief: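 Library compounds in DMSO were pin-dosed into 1536-well plates (5 μl) holding NOMO1 or SEM (500 cells/well) or P12-Ichikawa (1000 cells/well) leukemia cells, across an 11-point threefold series of 47 μM to 0.79 nM. Each cell line had been adapted for at least four passages in each medium. CellTiter-Glo One luminescence was read after 48 h at 37°C. Viability is the per-plate percentage relative to DMSO wells, with cell-free wells as background.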

[1] = HPLM + 10% dialyzed FBS, 0.000781 µM
[2] = HPLM + 10% dialyzed FBS, 0.00234 µM
[3] = HPLM + 10% dialyzed FBS, 0.00702 µM
[4] = HPLM + 10% dialyzed FBS, 0.0211 µM
[5] = HPLM + 10% dialyzed FBS, 0.0632 µM
[6] = HPLM + 10% dialyzed FBS, 0.19 µM
[7] = HPLM + 10% dialyzed FBS, 0.569 µM
[8] = HPLM + 10% dialyzed FBS, 1.71 µM
[9] = HPLM + 10% dialyzed FBS, 5.12 µM
[10] = HPLM + 10% dialyzed FBS, 15.4 µM
[11] = HPLM + 10% dialyzed FBS, 46.1 µM
[12] = RPMI 5 mM glucose + 10% FBS, 0.000781 µM
[13] = RPMI 5 mM glucose + 10% FBS, 0.00234 µM
[14] = RPMI 5 mM glucose + 10% FBS, 0.00702 µM
[15] = RPMI 5 mM glucose + 10% FBS, 0.0211 µM
[16] = RPMI 5 mM glucose + 10% FBS, 0.0632 µM
[17] = RPMI 5 mM glucose + 10% FBS, 0.19 µM
[18] = RPMI 5 mM glucose + 10% FBS, 0.569 µM
[19] = RPMI 5 mM glucose + 10% FBS, 1.71 µM
[20] = RPMI 5 mM glucose + 10% FBS, 5.12 µM
[21] = RPMI 5 mM glucose + 10% FBS, 15.4 µM
[22] = RPMI 5 mM glucose + 10% FBS, 46.1 µM
[23] = RPMI 5 mM glucose + 10% dialyzed FBS, 0.000781 µM
[24] = RPMI 5 mM glucose + 10% dialyzed FBS, 0.00234 µM
[25] = RPMI 5 mM glucose + 10% dialyzed FBS, 0.00702 µM
[26] = RPMI 5 mM glucose + 10% dialyzed FBS, 0.0211 µM
[27] = RPMI 5 mM glucose + 10% dialyzed FBS, 0.0632 µM
[28] = RPMI 5 mM glucose + 10% dialyzed FBS, 0.19 µM
[29] = RPMI 5 mM glucose + 10% dialyzed FBS, 0.569 µM
[30] = RPMI 5 mM glucose + 10% dialyzed FBS, 1.71 µM
[31] = RPMI 5 mM glucose + 10% dialyzed FBS, 5.12 µM
[32] = RPMI 5 mM glucose + 10% dialyzed FBS, 15.4 µM
[33] = RPMI 5 mM glucose + 10% dialyzed FBS, 46.1 µM

SMILES | cell viability [1] | cell viability [2] | cell viability [3] | cell viability [4] | cell viability [5] | cell viability [6] | cell viability [7] | cell viability [8] | cell viability [9] | cell viability [10] | cell viability [11] | cell viability [12] | cell viability [13] | cell viability [14] | cell viability [15] | cell viability [16] | cell viability [17] | cell viability [18] | cell viability [19] | cell viability [20] | cell viability [21] | cell viability [22] | cell viability [23] | cell viability [24] | cell viability [25] | cell viability [26] | cell viability [27] | cell viability [28] | cell viability [29] | cell viability [30] | cell viability [31] | cell viability [32] | cell viability [33]
CC1(C)CC(=O)c2c(C(F)(F)F)nn(-c3ccc(C(N)=O)c(NC4CCC(OC(=O)CN)CC4)c3)c2C1 (stereo unspecified) | 106% | 104% | 113% | 112% | 114% | 73.2% | 35.7% | 20.2% | 17% | 17.3% | 17.8% | 108% | 99.1% | 105% | 120% | 112% | 73.3% | 37.3% | 23.9% | 18.4% | 15.3% | 16.1% | 94.8% | 95.2% | 100% | 89.2% | 89.5% | 63.3% | 34.5% | 20.5% | 17.3% | 14.3% | 14.7%
CN(C)C(=O)COC(=O)Cc1ccc(OC(=O)c2ccc(NC(=N)N)cc2)cc1 | 107% | 113% | 122% | 112% | 125% | 126% | 119% | 119% | 112% | 118% | 61.2% | 102% | 110% | 126% | 117% | 130% | 126% | 139% | 130% | 114% | 107% | 61.7% | – | – | – | – | – | – | – | – | – | – | –
COc1ccc(-c2c(-c3ccc(O)cc3O)n[nH]c2C)cc1 | 98.3% | 95.8% | 114% | 108% | 110% | 108% | 88.8% | 95.5% | 86% | 62.2% | 51.1% | 114% | 104% | 107% | 109% | 108% | 108% | 103% | 84.3% | 84.1% | 44% | 20.9% | 98.6% | 96.8% | 93% | 101% | 103% | 108% | 96.2% | 99.5% | 87% | 54.4% | 30.9%
Cc1c(OCC(F)(F)F)ccnc1C[S+]([O-])c1nc2ccccc2[nH]1 (stereo unspecified) | 96.5% | 93.5% | 96.4% | 97.1% | 99% | 99.9% | 106% | 117% | 106% | 104% | 125% | 116% | 110% | 99.7% | 107% | 105% | 126% | 111% | 124% | 115% | 104% | 101% | 97.7% | 109% | 112% | 111% | 109% | 122% | 112% | 121% | 131% | 121% | 97.7%
COc1ccc2cc(-c3[nH]c(-c4ccc([S+](C)[O-])cc4)nc3-c3ccncc3)ccc2c1 (stereo unspecified) | 92.4% | 104% | 105% | 109% | 109% | 114% | 121% | 107% | 126% | 127% | 107% | 76.8% | 105% | 96.3% | 85.9% | 95% | 101% | 101% | 106% | 110% | 111% | 71.9% | 88.6% | 109% | 102% | 105% | 101% | 116% | 127% | 109% | 111% | 116% | 88.9%
Cn1cc(-c2ccncc2)c(-c2ccc(OCc3ccc4ccccc4n3)cc2)n1 | 124% | 127% | 95% | 134% | 132% | 123% | 116% | 124% | 125% | 110% | 110% | 123% | 126% | 102% | 118% | 118% | 125% | 122% | 124% | 95.3% | 81.1% | 82.4% | 94.6% | 108% | 89.7% | 112% | 98% | 102% | 112% | 110% | 103% | 96.8% | 64.3%
CCOC(=O)c1ncn2c1CN(C)C(=O)c1cc(F)ccc1-2 | 78.9% | 104% | 87.2% | 93.3% | 92.9% | 94.3% | 97.2% | 90.7% | 79.8% | 84.6% | 52.9% | 94.6% | 111% | 112% | 92.5% | 105% | 98.6% | 98.8% | 93.6% | 67.5% | 57.1% | 46.8% | 99% | 107% | 109% | 113% | 116% | 131% | 117% | 87.3% | 75.6% | 79.6% | 43.9%
CC1=CC2=C(O1)C(=C3OC(=O)\C=C(C)/C3=C2)C | 70.2% | 81.2% | 86.8% | 88.7% | 84% | 84.5% | 83.8% | 92.5% | 90.6% | 88.9% | 74.1% | 72% | 91.5% | 93.7% | 96.8% | 86.7% | 103% | 98.3% | 103% | 105% | 92.2% | 91% | 89% | 100% | 94.8% | 102% | 93.4% | 107% | 109% | 104% | 121% | 111% | 105%
CC1=C(C)C2=C(S1)[N]3C(=NN=C3[C@H](CC(=O)OC(C)(C)C)/N=C2/C4=CC=C(Cl)C=C4)C | 98.5% | 115% | 107% | 105% | 104% | 43.2% | 11.3% | 17.7% | 6.74% | 4.33% | 1.71% | 100% | 108% | 106% | 102% | 103% | 67.7% | 13.7% | 18.7% | 7.27% | 4.94% | 1.39% | 108% | 103% | 102% | 78.7% | 94.7% | 53.9% | 17.5% | 15.8% | 5.05% | 3.64% | 1.14%
Cc1ccc(F)c(NC(=O)Nc2ccc(-c3cccc4[nH]nc(N)c34)cc2)c1 | 91.7% | 92.7% | 86.3% | 76.2% | 59.5% | 56.7% | 55.1% | 62.9% | 64.9% | 64.2% | 14.4% | 73.4% | 84.4% | 80.3% | 69.9% | 49.7% | 48.4% | 41.7% | 56% | 48.8% | 29.9% | 1.63% | 87.5% | 91.3% | 82.1% | 71.1% | 65.8% | 48.7% | 60.6% | 61.7% | 57.6% | 43.5% | 8.13%
O=P(O)(O)C(O)(Cc1cccnc1)P(=O)(O)[O][Na] (stereo unspecified) | 83% | 67.3% | 100% | 21.8% | 102% | 111% | 104% | 108% | 111% | 107% | 116% | 89.6% | 51.7% | 91% | 14.2% | 95.7% | 100% | 90.3% | 96.8% | 110% | 100% | 112% | 96.1% | 52.9% | 92.7% | 22.1% | 121% | 116% | 113% | 102% | 118% | 108% | 123%
CC1(C)O[C@H]2CC(=O)OC[C@]23[C@H]2CC[C@@]4(C)[C@H](c5ccoc5)OC(=O)[C@H]5O[C@]54[C@]2(C)C(=O)C[C@@H]13 | 84.1% | 86.8% | 95.3% | 96.2% | 108% | 106% | 104% | 105% | 96.7% | 89.4% | 98.7% | 83.8% | 98.8% | 98.4% | 88.8% | 99.2% | 86% | 105% | 88.2% | 96.5% | 85.2% | 93.2% | 74.6% | 102% | 97.5% | 83.1% | 99% | 90% | 109% | 76.6% | 84.8% | 102% | 90%
C[C@@]12OC(=O)[C@@]1(NC(=O)[C@@H]2CCCl)[C@@H](O)[C@H]\3CCC\C=C3 | 78.2% | 92.7% | 93.6% | 100% | 34.2% | 10% | 6.88% | 6.65% | 4.57% | 3.3% | 2.16% | 87.5% | 90.2% | 93.7% | 96.8% | 31.8% | 8.22% | 7.13% | 6.4% | 4.56% | 2.53% | 2.01% | 80.9% | 92% | 91.8% | 84% | 33.3% | 9.46% | 7.84% | 7.08% | 5.11% | 3.72% | 2.53%
O=C(C1CCCCC1)N1CC(=O)N2CCc3ccccc3C2C1 (stereo unspecified) | 90.6% | 98.8% | 117% | 108% | 113% | 96% | 97.1% | 86.1% | 78.2% | 84.1% | 75.8% | 99.9% | 109% | 126% | 105% | 116% | 95.8% | 91.6% | 74.3% | 66.7% | 75.1% | 78.4% | 106% | 110% | 147% | 99.1% | 133% | 132% | 103% | 77.9% | 75% | 74.8% | 73.1%
CCCn1c(=O)c2[nH]c(-c3cnn(Cc4cccc(C(F)(F)F)c4)c3)nc2n(CC)c1=O | 100% | 109% | 111% | 120% | 109% | 124% | 124% | 113% | 107% | 109% | 95.4% | 95.8% | 89.9% | 106% | 109% | 103% | 108% | 99.8% | 94.4% | 116% | 109% | 90.5% | 109% | 109% | 111% | 111% | 116% | 124% | 109% | 104% | 112% | 117% | 98.4%
Nc1cccc(-c2cc3c(Oc4cccc(O)c4)ncnc3[nH]2)c1 | – | – | – | – | – | – | – | – | – | – | – | 70.7% | 122% | 132% | 143% | 145% | 123% | 132% | 121% | 88.8% | 62.3% | 9.75% | 69.1% | 123% | 132% | 125% | 131% | 116% | 133% | 121% | 80.4% | 56% | 13.4%
